This is an account of results in patent US11396522B2, “Bis-acetal-based substrates for imaging exo-glycosidase activity” (ALECTOS THERAPEUTICS INC., priority 2017, dated 2022).

For one data set, the target named is T1, GBA2 (Homo sapiens, UniProt Q9HCG7).
T1 sequence (Q9HCG7 1-927): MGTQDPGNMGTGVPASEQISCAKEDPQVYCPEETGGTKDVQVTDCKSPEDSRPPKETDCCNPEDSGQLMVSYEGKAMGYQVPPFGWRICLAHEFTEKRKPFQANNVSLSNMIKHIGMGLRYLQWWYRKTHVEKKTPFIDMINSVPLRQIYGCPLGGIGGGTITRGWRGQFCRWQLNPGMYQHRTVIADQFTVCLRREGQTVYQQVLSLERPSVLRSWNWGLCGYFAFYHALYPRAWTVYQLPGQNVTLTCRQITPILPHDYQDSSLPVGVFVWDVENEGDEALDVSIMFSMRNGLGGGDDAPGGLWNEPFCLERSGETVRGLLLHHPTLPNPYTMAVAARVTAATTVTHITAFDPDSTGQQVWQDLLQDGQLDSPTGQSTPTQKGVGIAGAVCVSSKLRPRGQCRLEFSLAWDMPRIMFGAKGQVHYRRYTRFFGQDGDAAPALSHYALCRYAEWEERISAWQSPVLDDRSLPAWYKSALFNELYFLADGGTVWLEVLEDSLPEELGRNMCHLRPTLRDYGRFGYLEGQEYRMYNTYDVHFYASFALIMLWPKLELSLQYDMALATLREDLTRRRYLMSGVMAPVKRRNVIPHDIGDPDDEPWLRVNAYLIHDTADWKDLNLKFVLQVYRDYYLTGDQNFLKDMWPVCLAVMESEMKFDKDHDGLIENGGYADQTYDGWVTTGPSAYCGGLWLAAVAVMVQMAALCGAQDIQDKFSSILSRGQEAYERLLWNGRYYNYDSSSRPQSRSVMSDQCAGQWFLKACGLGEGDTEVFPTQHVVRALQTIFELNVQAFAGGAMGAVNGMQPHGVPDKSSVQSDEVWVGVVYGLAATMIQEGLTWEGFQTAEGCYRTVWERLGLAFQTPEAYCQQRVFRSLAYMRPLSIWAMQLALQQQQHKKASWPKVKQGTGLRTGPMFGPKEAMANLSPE
Kind of data set: In vitro kinetic assay with GBA2. Type of data set: biochemical. Conditions: GBA enzymes at 50 nM.

Data set [1] can be described thus: pH stability of Glyco-BABS. The class given is physicochemical. Conditions: 5 μM, up to 72 h, pH 2 to 10.
Another data set addresses T2, GBA3 (Homo sapiens, UniProt Q9H227).
T2 construct: purchased R&D Systems
T2 sequence (Q9H227 1-469): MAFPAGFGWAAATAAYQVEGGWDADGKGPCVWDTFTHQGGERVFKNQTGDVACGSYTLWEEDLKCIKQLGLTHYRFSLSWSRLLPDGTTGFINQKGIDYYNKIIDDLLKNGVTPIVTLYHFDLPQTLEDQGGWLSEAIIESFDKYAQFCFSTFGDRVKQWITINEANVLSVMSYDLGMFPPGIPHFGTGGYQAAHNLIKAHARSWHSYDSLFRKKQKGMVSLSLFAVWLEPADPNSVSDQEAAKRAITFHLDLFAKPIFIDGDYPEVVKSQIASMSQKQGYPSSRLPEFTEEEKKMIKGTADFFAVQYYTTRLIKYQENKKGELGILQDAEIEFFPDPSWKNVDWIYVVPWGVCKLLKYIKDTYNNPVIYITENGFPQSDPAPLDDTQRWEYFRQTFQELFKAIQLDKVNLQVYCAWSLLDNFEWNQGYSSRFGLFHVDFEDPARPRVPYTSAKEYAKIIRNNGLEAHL
Briefly: In vitro kinetic assay with GBA3. Conditions: GBA enzymes at 50 nM. Type of data set: biochemical. As for the experimental part:
(§1) For some experiments, fluorescence kinetic assays were performed using a Varian Cary Eclipse Spectrophotometer set for 335/493 nm excitation/emission wavelengths. Slits were set at 10 nm and the detector was set on Medium voltage. Enzymatic reactions with human OGA were carried out in PBS at 37° C. and were started by addition of hOGA (WT, Full-length, expressed in E. coli. as previously described) in a total volume of 160 μL (Starna sub-micro Fluorometer cuvette). For measurements of rates using different concentrations of substrates, a hOGA concentration of 100 nM was used. For hOGA titration, 25 μM of Glyco-BABS were added to various concentration of hOGA. […] EDANS standard curve was established using endpoint fluorescence measurements of serial dilutions of EDANS in the relevant buffer using the same instrument parameters. Inner-Filter effect measurements were carried out in cuvette by measuring fluorescence of several concentrations of EDANS in presence of various concentrations of GlcNAc-BABS. Kinetics with Glc-BABS and GBA enzymes (GBA1 and GBA3 purchased from R&D Systems), kinetics with GALC (R&D systems) and Gal-BABS, pH stability, quenching efficiency, some inner-filter effect experiments and lysates experiments were carried out using a Molecular Devices SpectraMax i3× plate reader. […]

The next data set concerns the target T3, GBA1 (Homo sapiens, UniProt P04062).
T3 sequence (P04062 40-536): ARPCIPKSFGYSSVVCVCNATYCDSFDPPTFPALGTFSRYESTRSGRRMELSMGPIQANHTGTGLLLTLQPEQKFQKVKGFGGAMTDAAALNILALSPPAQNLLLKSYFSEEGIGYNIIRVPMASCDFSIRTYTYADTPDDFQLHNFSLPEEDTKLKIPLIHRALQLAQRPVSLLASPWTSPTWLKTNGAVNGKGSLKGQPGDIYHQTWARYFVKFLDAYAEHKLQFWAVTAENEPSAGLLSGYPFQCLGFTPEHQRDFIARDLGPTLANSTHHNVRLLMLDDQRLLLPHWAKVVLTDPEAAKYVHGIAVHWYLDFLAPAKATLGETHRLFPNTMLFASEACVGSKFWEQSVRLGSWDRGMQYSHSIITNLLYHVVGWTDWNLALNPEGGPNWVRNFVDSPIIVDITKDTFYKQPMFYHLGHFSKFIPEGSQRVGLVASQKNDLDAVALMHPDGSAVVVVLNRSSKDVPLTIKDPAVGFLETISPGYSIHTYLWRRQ
Kind of data set: In vitro kinetic assay with GBA1. Also on record: purchased R&D Systems. Conditions: GBA enzymes at 50 nM. The class given is biochemical. As for the experimental part:
as §1

For `CN(C)c1ccc(/N=N/c2ccc(C(=O)NCc3cn(CCOCCO[C@H](O[C@@H]4O[C@H](CO)[C@@H](O)[C@H](O)[C@H]4O)[C@@](C)(O)C(=O)NCCNc4cccc5c(S(=O)(=O)O)cccc45)nn3)cc2)cc1` [Compound 6, 5-((2-((2R,3R)-3-(2-(2-(4-((4-((E)-(4-(dimethylamino)phenyl)diazenyl)benzamido)methyl)-1H-1,2,3-triazol-1-yl)ethoxy)ethoxy)-2-hydroxy-2-methyl-3-(((2S,3R,4S,5S,6R)-3,4,5-trihydroxy-6-(hydroxymethyl)tetrahydro-2H-pyran-2-yl)oxy)propanamido)ethyl)amino)naphthalene-1-sulfonic Acid], at GBA2, the “turnover by GBA2” value is listed as “not turned over”. In addition, in data set [1], the “pH stability (increase of fluorescence)” value is listed as “no significant increase of fluorescence”. The “turnover by GBA3” value on GBA3 is “not turned over”. Also, the “turnover by GBA1” value on GBA1 was “not turned over”.
